Patent US9107900B2, “Use of dronedarone for the preparation of a medicament for use in the prevention of cardiovascular hospitalization or of morality” (SANOFI, priority 2008, dated 2015)
Structures can show the parent of a compound that is named as a salt.

Experiment: blood potassium level from regular blood samples in the same clinical study
Type: in vivo, human
Conditions: after the 24th month, taking into account the starting value; vs placebo; p<0.0001
From the text: The potassium concentration-modulating effect is clearly documented in the study by virtue of the results of analyses of regular blood samples taken throughout the duration of the study in the context of the monitoring of vital parameters.
The variations in potassium (in mmol/l) between the first and the last administration of the medicament of the study are included in FIG. 8, in which B signifies basal level, D signifies day and M signifies month.

SMILES: CCCCc1oc2ccc(NS(C)(=O)=O)cc2c1C(=O)c1ccc(OCCCN(CCCC)CCCC)cc1 [dronedarone hydrochloride, 2-n-Butyl-3-[4-(3-di-n-butylaminopropoxy)benzoyl]-5-methylsulphonamidobenzofuran]
- change in blood potassium level (analysis of covariance): significant different in favour of dronedarone
